Assay results as given in patent US20250051263A1, “NOVEL IONIZABLE LIPIDS AND LIPID NANOPARTICLES AND METHODS OF USING THE SAME” (Sail Biomedicines, Inc., priority 2021, published 2025).

How the values were obtained:
Balb/c mice [1] = assay: In-vivo bioluminescent imaging after IV injection of Fluc mRNA LNP; conditions: IV; for Bioluminescence (IV) Liver / Bioluminescence (IV) Lung / Bioluminescence (IV) Spleen / Bioluminescence (IV) Whole Body / Spleen: Liver Ratio: Example 5 LNP (DOPE 35:16:46.5:2.5), 5 μg FLUC + 5 μg EPO; for Bioluminescence (IV) Liver / Bioluminescence (IV) Lung / Bioluminescence (IV) Spleen / Bioluminescence (IV) Whole Body / Bioluminescence Liver / Bioluminescence Lung / Bioluminescence Spleen: 4-6 hours post-dose; for Spleen: Liver Ratio: ratio of bioluminescence; for Bioluminescence Liver / Bioluminescence Lung / Bioluminescence Spleen: 5 ug Fluc+5 ug EPO mRNA
Description: (§1) 8-9 week old female Balb/c mice are utilized for bioluminescence-based ionizable lipid screening efforts. Mice are obtained from Jackson Laboratories (JAX Stock: 000651) and allowed to acclimate for one week prior to manipulations. Animals are placed under a heat lamp for a few minutes before introducing them to a restraining chamber. The tail is wiped with alcohol pads (Fisher Scientific) and 100 μL of a lipid nanoparticle composition descrbed above containing 10 ug total mRNA (5 ug Fluc+5 ug EPO) is injected intravenously using a 29 G insulin syringe (Covidien). Any resulting bleeding is stemmed using a sterile gauze pad (Fisher Scientific) and animals are placed back into their home cage. 4-6 hours post-dose, animals are injected with 200 μL of 15 mg/mL D-Luciferin (GoldBio) and placed in an isoflurane induction chamber set to deliver 2.5% isoflurane delivered at an oxygen flow rate of 1-2 liters per min. After 5 minutes of isoflurane exposure, mice are placed in set nose cones inside the IVIS Lumina LT imager (PerkinElmer). LivingImage software is utilized for imaging. Whole body bio-luminescence is captured at auto-exposure after which animals are removed from the IVIS and placed into a CO2 chamber for euthanasia. Cardiac puncture is performed on each animal after placing it in dorsal recumbency, and blood collection is performed using a 25 G insulin syringe (BD). Blood is collected in Lithium-Heparin coated tubes (Fisher Scientific) and immediately placed on ice. Once all blood samples are collected, tubes are spun at 2000 G for 10 minutes using a tabletop centrifuge and plasma is aliquoted into individual Eppendorf tubes (Fisher Scientific) and stored at −80 C for subsequent EPO quantification. EPO levels in plasma are determined using EPO MSD kit (Meso Scale Diagnostics).
(§2) 8-9 week old female Balb/c mice were utilized for bioluminescence-based ionizable lipid screening efforts. Mice were obtained from Jackson Laboratories (JAX Stock: 000651) and allowed to acclimate for one week prior to manipulations. Animals were placed under a heat lamp for a few minutes before introducing them to a restraining chamber. The tail was wiped with alcohol pads (Fisher Scientific) and, for each LNP composition descrbed above, 100 μL of a lipid nanoparticle composition descrbed above containing 10 μg total mRNA (5 μg Fluc+5 μg EPO, 5 μg Fluc+5 μg Cre, or 5 μg EGFP) was injected intravenously using a 29 G insulin syringe (Covidien).
(§3) 4-6 hours post-dose, animals were injected with 200 μL of 15 mg/mL D-Luciferin (GoldBio), and placed in set nose cones inside the IVIS Lumina LT imager (PerkinElmer). LivingImage software was utilized for imaging. Whole body bio-luminescence was captured at auto-exposure after which animals are removed from the IVIS and placed into a CO2 chamber for euthanasia. Cardiac puncture was performed on each animal after placing it in dorsal recumbency, and blood collection was performed using a 25 G insulin syringe (BD). Once all blood samples were collected, tubes are spun at 2000 G for 10 minutes using a tabletop centrifuge and plasma was aliquoted into individual Eppendorf tubes (Fisher Scientific) and stored at −80° C. for subsequent EPO quantification. EPO levels in plasma were determined using EPO MSD kit (Meso Scale Diagnostics).

[2] = TNS (pKa) assay, apparent LNP pKa; format: physicochemical; conditions: for pKa (TNS): Example 5 LNP lipid:DOPE:Plant Cholesterol:DMPE-PEG2k 35:16:46.5:2.5, FLUC/EPO 1:1 mRNA, N:P 6:1
Description: (protocol adapted from: A Novel Amino Lipid Series for mRNA Delivery: Improved Endosomal Escape and Sustained Pharmacology and Safety in Non-human Primates, Sabnis, Staci et al., Molecular Therapy, Volume 26, Issue 6, 1509-1519) 20 buffers (10 mM sodium phosphate, 10 mM sodium borate, 10 mM sodium citrate, and 150 mM sodium chloride, in Distilled Water) of unique pH values ranging from 3.0-12.0 were prepared using 1M sodium hydroxide and 1M hydrochloric acid. 3.25 uL of LNPs (0.04 mg/mL mRNA, in PBS) were incubated with 2 μL of TNS reagent (0.3 mM, in DMSO) and 90 μL of buffer for each pH value (described above) in a 96-well black-walled plate. Each pH condition was performed in triplicate wells. The TNS fluorescence was measured using a Biotek Cytation Plate reader at excitation/emission wavelengths of 321/445 nm. The fluorescence values were then plotted and fit using a 4-parameter sigmoid curve. From the fit, the pH value yielding the half-maximal fluorescence was calculated and reported as the apparent LNP pKa value.
For pKa measurement, a […] assay was conducted according to those described in Sabnis et al., Molecular Therapy, 26(6):1509-19), which is incorporated herein by reference in its entirety. Briefly, 20 buffers (10 mM sodium phosphate, 10 mM sodium borate, 10 mM sodium citrate, and 150 mM sodium chloride, in distilled Water) of unique pH values ranging from 3.0-12.0 were prepared using 1M sodium hydroxide and 1M hydrochloric acid. 3.25 μL of a LNP composition (0.04 mg/mL mRNA, in PBS) was incubated with 2 μL of TNS reagent (0.3 mM, in DMSO) and 90 μL of buffer for each pH value (described above) in a 96-well black-walled plate. Each pH condition was performed in triplicate wells. The TNS fluorescence was measured using a Biotek Cytation Plate reader at excitation/emission wavelengths of 321/445 nm. The fluorescence values were then plotted and fit using a 4-parameter sigmoid curve. From the fit, the pH value yielding the half-maximal fluorescence was calculated and reported as the apparent LNP pKa value.

Balb/c mice [3] = assay: EPO levels in plasma by EPO MSD kit after IV injection of EPO mRNA LNP; format: in vivo
Description: as §1, §2, §3

[4] = LNP size and polydispersity, Zetasizer Ultra; format: physicochemical; conditions: Example 5 LNP lipid:DOPE:Plant Cholesterol:DMPE-PEG2k 35:16:46.5:2.5, FLUC/EPO 1:1 mRNA, N:P 6:1
Text: (§4) All other compositions (i.e., compositions of MC3 (a commercially available ionizable lipid having a chemical name of (6Z,9Z,28Z,31Z)-heptatriacont-6,9,28,31-tetraene-19-yl 4-(dimethylamino)butanoate, and compositions of novel ionizable lipids 7669, 7671, 7668, 767, 7650) are composed of ionizable lipid:structural lipid:sterol:PEG-lipid (SDA lipid #:DSPC:cholesterol:14:0 PEG2000 PE) at a molar ratio of […], respectively. Lipids are solubilized in ethanol. Compositions are then handled as above, except the formulations are maintained at ionizable lipid to mRNA N:P ratio of 6:1. The lipid mix and mRNA solution are mixed at a 1:3 ratio by volume, respectively, on a NanoAssemblr Ignite (Precision Nanosystems) at a total flow rate of 9 mL/min. Resulting compositions are then loaded into Slide-A-Lyzer G2 dialysis cassettes (10 k MWCO) and dialyzed in 200 times sample volume of 1×PBS for 4 hrs at room temp with gentle stirring. The PBS is refreshed, and the compositions are further dialyzed for at least 14 hrs at 4° C. with gentle stirring. The dialyzed compositions are then collected and concentrated by centrifugation at 2000×g using Amicon Ultra centrifugation filters (100 k MWCO). Concentrated particles are characterized for size, polydispersity, and particle concentration using Zetasizer Ultra (Malvern Panalytical) and for mRNA encapsulation efficiency using Quant-iT RiboGreen RNA Assay Kit (ThermoFisher Scientific).
(§5) The lipid mix and mRNA solution were mixed at a 1:3 ratio by volume, respectively, on the NanoAssemblr Ignite (Precision Nanosystems) at a total flow rate of 9 mL/min. Resulting formulations were then loaded into Slide-A-Lyzer G2 dialysis cassettes (10 k MWCO) and dialyzed in 200 times sample volume of 1×PBS for 2 hrs at room temperature. The PBS was refreshed, and the formulations were further dialyzed for at least 14 hrs at 4° C. with gentle stirring. The dialyzed formulations were then collected and concentrated by centrifugation at 3000×g using Amicon Ultra centrifugation filters (100 k MWCO). The concentrated formulations were characterized for size, polydispersity, and particle concentration using Zetasizer Ultra (Malvern Panalytical) and for mRNA encapsulation efficiency using Quant-iT RiboGreen RNA Assay Kit (ThermoFisher Scientific).
(§6) For each LNP composition, the lipid mix and mRNA solution were mixed at a 1:3 ratio by volume, respectively, on a NanoAssemblr Ignite (Precision Nanosystems) at a total flow rate of 9 mL/min. The resulting compositions were then loaded into Slide-A-Lyzer G2 dialysis cassettes (10 k MWCO) and dialyzed in 200 times sample volume of 1×PBS for 2 hours at room temperature with gentle stirring. The PBS was refreshed, and the compositions were further dialyzed for at least 14 hours at 4° C. with gentle stirring. The dialyzed compositions were then collected and concentrated by centrifugation at 3000×g using Amicon Ultra centrifugation filters (100 k MWCO). The concentrated particles were characterized for size, polydispersity, and particle concentration using Zetasizer Ultra (Malvern Panalytical) and for mRNA encapsulation efficiency using Quant-iT RiboGreen RNA Assay Kit (ThermoFisher Scientific).

[5] = mRNA encapsulation efficiency, Quant-iT RiboGreen RNA Assay; format: physicochemical; conditions: Example 5 LNP lipid:DOPE:Plant Cholesterol:DMPE-PEG2k 35:16:46.5:2.5, FLUC/EPO 1:1 mRNA, N:P 6:1
Text: as §4, §5, §6

[6] = LNP lipid:DOPE:Plant Chol.:DMPE-PEG2k 35:16:46.5:2.5 (Table 1)
[7] = LNP lipid:DSPC:Plant Chol.:DMPE-PEG2k 50:10:38.5:1.5
[8] = Example 5 LNP (DOPE 35:16:46.5:2.5), 5 μg FLUC + 5 μg EPO

SMILES: CCCCCCCCCCCOC(=O)CCCCCN(CCCCCCCC(=O)OC(CCCCCCCC)CCCCCCCC)CCNC(=O)CCC(=O)NCCN(CCCCCCCC(=O)OC(CCCCCCCC)CCCCCCCC)CCCCCC(=O)OCCCCCCCCCCC [Compound 2221, 1-octylnonyl 8-[2-[[4-[2-[[8-(1-octylnonoxy)-8-oxo-octyl]-(6-oxo-6-undecoxy-hexyl)amino]ethylamino]-4-oxo-butanoyl]amino]ethyl-(6-oxo-6-undecoxy-hexyl)amino]octanoate]
- Bioluminescence (IV) Liver (Balb/c mice [1]): 3.0E+06
- Bioluminescence (IV) Lung (Balb/c mice [1]): 1.9E+03
- Bioluminescence (IV) Spleen (Balb/c mice [1]): 2.7E+05
- Bioluminescence (IV) Whole Body (Balb/c mice [1]): 2.2E+07
- Spleen: Liver Ratio (Balb/c mice [1]): 0.082
- Bioluminescence Liver (Balb/c mice [1]; [6]): 3.05E+06
- Bioluminescence Lung (Balb/c mice [1]; [6]): 1.88E+03
- Bioluminescence Spleen (Balb/c mice [1]; [6]): 2.68E+05
- Bioluminescence Liver (Balb/c mice [1]; [7]): 2.94E+06
- Bioluminescence Lung (Balb/c mice [1]; [7]): 5.09E+03
- Bioluminescence Spleen (Balb/c mice [1]; [7]): 1.23E+06
- pKa (TNS) [2]: 6.36
- pKa ([2]; LNP ionizable lipid:DOPE:Plant Chol.:DMPE-PEG2k 35:16:46.5:2.5 (Table 1)): 6.36
- pKa ([2]; LNP ionizable lipid:DSPC:Plant Chol.:DMPE-PEG2k 50:10:38.5:1.5): 6.29
- hEPO (Balb/c mice [3]; [8]): 4.7E+05
- hEPO (Balb/c mice [3]; LNP lipid:DOPE:Plant Chol.:DMPE-PEG2k 35:16:46.5:2.5 (Table 1), 5 ug Fluc+5 ug EPO mRNA): 4.71E+05
- hEPO (Balb/c mice [3]; LNP lipid:DSPC:Plant Chol.:DMPE-PEG2k 50:10:38.5:1.5, 5 ug Fluc+5 ug EPO mRNA): 4.46E+05

SMILES: CCCCCCCCCCCOC(=O)CCCCCN(CCCCCCCC(=O)OC(CCCCCCCC)CCCCCCCC)CCNC(=O)CCCC(=O)NCCN(CCCCCCCC(=O)OC(CCCCCCCC)CCCCCCCC)CCCCCC(=O)OCCCCCCCCCCC [Compound 2273, 1-octylnonyl 8-[2-[[5-[2-[[8-(1-octylnonoxy)-8-oxo-octyl]-(6-oxo-6-undecoxy-hexyl)amino]ethylamino]-5-oxo-pentanoyl]amino]ethyl-(6-oxo-6-undecoxyhexyl)amino]octanoate]
- Bioluminescence (IV) Liver (Balb/c mice [1]): 7.6E+06
- Bioluminescence (IV) Lung (Balb/c mice [1]): 1.0E+04
- Bioluminescence (IV) Spleen (Balb/c mice [1]): 5.7E+05
- Bioluminescence (IV) Whole Body (Balb/c mice [1]): 4.2E+07
- Spleen: Liver Ratio (Balb/c mice [1]): 0.080
- pKa (TNS) [2]: 6.57
- hEPO (Balb/c mice [3]; [8]): 8.5E+05

SMILES: CCCCCCCCC(CCCCCCCC)OC(=O)CCCCCCCN(CCCCCCCOC(=O)C(CCCCCCCC)CCCCCCCC)CCNC(=O)CCC(=O)NCCN(CCCCCCCOC(=O)C(CCCCCCCC)CCCCCCCC)CCCCCCCC(=O)OC(CCCCCCCC)CCCCCCCC [Compound 2323, 7-[2-[[4-[2-[7-(2-octyldecanoyloxy)heptyl-[8-(1-octylnonoxy)-8-oxo-octyl]amino]ethylamino]-4-oxo-butanoyl]amino]ethyl-[8-(1-octylnonoxy)-8-oxo-octyl]amino]heptyl 2-octyldecanoate]
- PDI [4]: 0.14
- Size (nm) [4]: 91.0 nm
- Bioluminescence (IV) Liver (Balb/c mice [1]): 3.2E+07
- Bioluminescence (IV) Lung (Balb/c mice [1]): 7.7E+03
- Bioluminescence (IV) Spleen (Balb/c mice [1]): 8.7E+05
- Bioluminescence (IV) Whole Body (Balb/c mice [1]): 2.1E+08
- Spleen: Liver Ratio (Balb/c mice [1]): 0.027
- % EE [5]: 90.7%
- hEPO (Balb/c mice [3]; [8]): 3.1E+06
